From ChEMBL document CHEMBL1152446, “Identification of an orally efficacious matrix metalloprotease 12 inhibitor for potential treatment of asthma” (J Med Chem, 2009)

Experiments:
in vitro [1] = conditions: human, liver microsomes
Collagenase 3 = Collagenase 3 (Homo sapiens, UniProt P45452); assay: Inhibition of human recombinant MMP13
[2] = target: Macrophage metalloelastase (Homo sapiens, UniProt P39900)
Description: Inhibition of human recombinant MMP12

in vitro [3] = conditions: rat, liver microsomes
[4] = Metabolic stability in C57BL/6 mouse liver microsome assessed as half life; assay type: ADME; conditions: liver microsomes
[5] = Clearance in C57BL/6 mouse at 2 mg/kg, iv; assay type: ADME, organism-based; design: dose 2 mg/kg, route intravenous; conditions: in vivo
[6] = Oral bioavailability in C57BL/6 mouse at 30 mg/kg; assay type: ADME, organism-based; conditions: in vivo
[7] = Volume of distribution at steady state in C57BL/6 mouse at 2 mg/kg, iv; assay type: ADME, organism-based; design: dose 2 mg/kg, route intravenous; conditions: in vivo, read-out: Vdss
[8] = Half life in C57BL/6 mouse at 30 mg/kg, po; assay type: ADME, organism-based; design: dose 30 mg/kg, route oral; conditions: in vivo
[9] = Cmax in C57BL/6 mouse at 30 mg/kg, po; assay type: ADME, organism-based; design: dose 30 mg/kg, route oral; conditions: in vivo
[10] = target: Macrophage metalloelastase MMP-12 (Homo sapiens) (UniProt P39900); assay: Inhibition of MMP12
Macrophage metalloelastase MMP-12 (Homo sapiens), sequence (P39900 whole entry, looked up): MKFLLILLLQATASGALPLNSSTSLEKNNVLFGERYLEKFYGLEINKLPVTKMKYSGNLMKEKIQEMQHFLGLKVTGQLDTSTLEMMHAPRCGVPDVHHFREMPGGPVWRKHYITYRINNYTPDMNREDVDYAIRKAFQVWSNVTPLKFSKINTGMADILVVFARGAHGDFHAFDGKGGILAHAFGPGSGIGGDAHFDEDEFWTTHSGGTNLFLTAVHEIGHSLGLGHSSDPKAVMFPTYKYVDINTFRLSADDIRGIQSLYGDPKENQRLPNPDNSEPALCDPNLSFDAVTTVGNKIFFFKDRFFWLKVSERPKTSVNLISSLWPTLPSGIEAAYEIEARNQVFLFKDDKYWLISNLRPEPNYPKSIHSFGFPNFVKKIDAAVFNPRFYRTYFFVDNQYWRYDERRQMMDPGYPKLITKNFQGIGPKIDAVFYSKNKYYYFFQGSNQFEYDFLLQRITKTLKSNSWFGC

Macrophage metalloelastase, sequence (P39900 whole entry): as the sequence (P39900 whole entry, looked up) above

## CC(C)[C@H](NS(=O)(=O)c1ccc2c(c1)sc1cc(NC(=O)NC3CCCC3)ccc12)C(=O)O
In vitro [1]
  half-life: > 30 min
Collagenase 3
  IC50: > 1000 nM
[2]
  IC50: > 1000 nM
In vitro [3]
  half-life: > 30 min
[4]
  half-life: > 30 min

## CCNC(=O)Nc1ccc2c(c1)sc1cc(S(=O)(=O)N[C@H](C(=O)O)C(C)C)ccc12
In vitro [1]
  half-life: > 30 min
Collagenase 3
  IC50: 809 nM
In vitro [3]
  half-life: > 30 min
[4]
  half-life: > 30 min

## CC(C)[C@@H](NS(=O)(=O)c1ccc2c(c1)sc1cc(NC(=O)Nc3ccccc3)ccc12)C(=O)O
In vitro [1]
  half-life: > 30 min
Collagenase 3
  IC50: 1290 nM
In vitro [3]
  half-life: > 30 min
[4]
  half-life: > 30 min

## COC(=O)Nc1ccc2c(c1)sc1cc(S(=O)(=O)N[C@H](C(=O)O)C(C)C)ccc12
In vitro [1]
  half-life: > 30 min
Collagenase 3
  IC50: 632 nM
In vitro [3]
  half-life: > 30 min
[4]
  half-life: > 30 min

## CC(C)[C@H](NS(=O)(=O)c1ccc2c(c1)sc1cc(NC(=O)Oc3ccc(F)cc3)ccc12)C(=O)O
In vitro [1]
  half-life: > 30 min
Collagenase 3
  IC50: 217 nM
In vitro [3]
  half-life: > 30 min
[4]
  half-life: > 30 min

## CC(C)[C@H](NS(=O)(=O)c1ccc2c(c1)sc1ccc(NS(C)(=O)=O)cc12)C(=O)O
Collagenase 3
  IC50: 1140 nM

## CC(C)[C@H](NS(=O)(=O)c1ccc2sc3cc(NS(C)(=O)=O)ccc3c2c1)C(=O)O
Collagenase 3
  IC50: > 25000 nM

## CC(C)[C@H](NS(=O)(=O)c1ccc2c(c1)sc1cc(NC(=O)NCc3ccccc3)ccc12)C(=O)O
In vitro [1]
  half-life: > 30 min
Collagenase 3
  IC50: 200 nM
In vitro [3]
  half-life: > 30 min
[4]
  half-life: > 30 min

## COC(=O)Nc1ccc2c(c1)sc1ccc(S(=O)(=O)N[C@@H](C(=O)O)C(C)C)cc12
In vitro [1]
  half-life: > 30 min
Collagenase 3
  IC50: > 25000 nM
In vitro [3]
  half-life: > 30 min
[4]
  half-life: > 30 min

## CC(C)[C@H](NS(=O)(=O)c1ccc2c(c1)oc1cc(N)ccc12)C(=O)O
In vitro [1]
  half-life: > 30 min
Collagenase 3
  IC50: 1090 nM
In vitro [3]
  half-life: > 30 min
[4]
  half-life: > 30 min

## CC(C)[C@@H](NS(=O)(=O)c1ccc2sc3cc(NS(C)(=O)=O)ccc3c2c1)C(=O)O
Collagenase 3
  IC50: > 25000 nM

## CCOC(=O)Nc1ccc2oc3cc(S(=O)(=O)N[C@H](C(=O)O)C(C)C)ccc3c2c1
In vitro [1]
  half-life: > 30 min
In vitro [3]
  half-life: > 30 min
[4]
  half-life: > 30 min

## C#CCCOC(=O)Nc1ccc2c(c1)sc1cc(S(=O)(=O)N[C@H](C(=O)O)C(C)C)ccc12
In vitro [1]
  half-life: > 30 min
Collagenase 3
  IC50: 23 nM
In vitro [3]
  half-life: > 30 min
[4]
  half-life: > 30 min

## COC(=O)Nc1ccc2sc3cc(S(=O)(=O)N[C@H](C(=O)O)C(C)C)ccc3c2c1
In vitro [1]
  half-life: > 30 min
[5]
  clearance: 31.2 mL/min/kg
[6]
  bioavailability: 34%
Collagenase 3
  IC50: 65 nM
[7]
  Vd: 1.7 L/kg
In vitro [3]
  half-life: > 30 min
[4]
  half-life: > 30 min
[8]
  half-life: 186 min
[9]
  Cmax: 1820 ng/mL

## COC(=O)Nc1ccc2oc3cc(S(=O)(=O)N[C@H](C(=O)O)C(C)C)ccc3c2c1
In vitro [1]
  half-life: > 30 min
In vitro [3]
  half-life: > 30 min
[10]
  IC50: 2 nM
[4]
  half-life: > 30 min

## COC(=O)Nc1ccc2c(c1)sc1ccc(S(=O)(=O)N[C@H](C(=O)O)C(C)C)cc12
In vitro [1]
  half-life: > 30 min
Collagenase 3
  IC50: > 25000 nM
In vitro [3]
  half-life: > 30 min
[4]
  half-life: > 30 min

## CC(C)[C@@H](NS(=O)(=O)c1ccc2sc3ccccc3c2c1)C(=O)O
Collagenase 3
  IC50: 13800 nM

## CC(C)COC(=O)Nc1ccc2c(c1)sc1cc(S(=O)(=O)N[C@H](C(=O)O)C(C)C)ccc12
In vitro [1]
  half-life: > 30 min
Collagenase 3
  IC50: 334 nM
In vitro [3]
  half-life: > 30 min
[4]
  half-life: > 30 min

## CC(C)[C@@H](NS(=O)(=O)c1ccc2c(c1)sc1ccc(NS(C)(=O)=O)cc12)C(=O)O
Collagenase 3
  IC50: 277 nM
